Patent US12571793B2, “Method for evaluating biofilm formation, and invertebrate for use in evaluating biofilm formation” (MEIJI PHARMACEUTICAL UNIVERSITY, priority 2020, dated 2026)

Tested on: C. albicans strain SC5314
Assay: Test Example 5: suppression effect of antifungal drugs on biofilm formation on polyurethane fibers in silkworms, drug given 12 hours after inoculation
Format: in vivo, Candida albicans (in silkworm)
Details: antifungal drug administered 12 hours after inoculation of C. albicans; fibers extracted 24 hours after inoculation; compared with physiological saline
Experimental: Biofilms formed on the surface of the polyurethane fibers after the culture were stained with crystal violet, and the biofilms were quantified. The biofilms were stained as follows. Each of the polyurethane fibers were moved to a 1.5-ml tube and washed with 1 ml of distilled water twice. Then, 500 μl of an aqueous 0.1% crystal violet solution was added, and the polyurethane fiber was placed at room temperature for 20 to 60 minutes. The stain solution was discarded, and the polyurethane fiber were washed with 1 ml of distilled water 3 times. The polyurethane fibers were washed with 1 ml of ethanol twice and then air-dried. The polyurethane fibers were observed under a microscope (×10, CH30, Olympus Corporation), and photographs were taken. Then, 500 μl of 33% acetic acid solution was added, and the polyurethane fibers were left to stand at room temperature for 2 hours or more. The absorbance (OD590) of the sample to which 500 μl of distilled water was added to adjust the total volume to 1 ml was measured.
Next, it was examined whether biofilms by C. albicans were formed on the surface of the polyurethane fibers in the bodies of silkworms. Silkworms in which the polyurethane fibers were inserted were inoculated with 50 μl of physiological saline solution (saline) or 50 μl of a suspension of C. albicans strain SC5314 (7×10^7 cells/ml) and bred at 27° C. for 24 hours. […]

C[C@@H]1[C@H](O)[C@@H](C)/C=C/C=C/C=C/C=C/C=C/C=C/C=C/[C@H](O[C@@H]2O[C@H](C)[C@@H](O)[C@H](N)[C@@H]2O)C[C@@H]2O[C@](O)(C[C@@H](O)C[C@@H](O)[C@H](O)CC[C@@H](O)C[C@@H](O)CC(=O)O[C@H]1C)C[C@H](O)[C@H]2C(=O)O [amphotericin B]
biofilm formation on the polyurethane fiber in the bodies of the silkworms (crystal violet, absorbance 590 nm): significantly suppressed
